# Test results as given in paper PMC8753592, “Long-acting capsid inhibitor protects macaques from repeat SHIV challenges” (Nature, 2021).
# Where “and” joins values, the source holds several entries; their conditions need not be identical. Identical values can stand only once.
# Key:
# [1] = Pilot pharmacokinetic study, single subcutaneous administration; settings: for Plasma GS-CA1 level: unit not given; for concentration at 0.43 weeks: 0.43 weeks post dose; for concentration at 0.57 weeks: 0.57 weeks post dose; for concentration at 1 week: 1 week post dose; for concentration at 4 weeks: 4 weeks post dose; for concentration at 8 weeks: 8 weeks post dose
# Protocol: All study protocols were reviewed and approved by the Covance Laboratories Institutional Animal Care and Use Committee (IACUC).
# Rhesus plasma samples were stored frozen at −80 °C. For analysis, the samples were thawed, and a 50-µl aliquot of each sample was treated with 200 µl acetonitrile containing a generic internal small-molecule standard. After precipitation of the protein component, a 100-µl aliquot of the supernatant was transferred to a clean 96-well plate and was mixed with 200 µl water. A 20-μl aliquot of the above solution was then injected into a Q-Exactive high-resolution mass spectrometer (Thermo Scientific) with electrospray ionization in positive mode. Quantification was performed with a Thermo Scientific Xcalibur 4.0.27.19 using accurate masses (<5 parts per million mass error; [M + H]^+ of 958.1853 for GC-CA1 and 758.3270 for the internal standard, respectively)[22],[23]. […] Pharmacokinetic parameters, including the area under the plasma concentration–time curve from time 0 to the last quantifiable time point (AUClast), the area under the plasma concentration–time curve from time 0 to infinity (AUCinf), the maximum concentration (Cmax), the time to reach the observed peak plasma concentration (tmax) and the terminal half-life (t1/2), were determined by non-compartmental analysis using Phoenix WinNonlin 6.4 build 8.1.0.3530 software (Pharsight).
# CA hexamer = settings: ref Yant et al, Nat.Med, 2019;[4]; read-out: Binding Affinity (KD), CA hexamer; cited from earlier work
# [2] = ref Yant et al, Nat.Med, 2019;[4]; cited from earlier work
# [3] = male, Indian origin, rhesus monkey, in vivo, 100 mg/kg, Plasma GS-CA1 level, 100 mg/kg s.c., individual animals, unit inferred
# [4] = male, Indian origin, rhesus monkey, in vivo, 300 mg/kg, Plasma GS-CA1 level, 300 mg/kg s.c., individual animals, unit inferred
# [5] = male, Indian origin, rhesus monkey, in vivo, sc, 100 mg/kg
# [6] = male, Indian origin, rhesus monkey, in vivo, sc, 300 mg/kg
structure (smiles),measurement,setting,value
CC(C)(C#Cc1ccc(-c2ccc(Cl)c3c(NS(=O)(=O)C4CC4)nn(CC(F)F)c23)c([C@H](Cc2cc(F)cc(F)c2)NC(=O)Cn2nc(C(F)F)c3c2C(F)(F)[C@@H]2C[C@H]32)n1)S(C)(=O)=O [GS-CA1],Plasma GS-CA1 level,"[1]; 300 mg/kg s.c., 10 weeks post dose, individual animals",116 and 206
same,Plasma GS-CA1 level,"[1]; 300 mg/kg s.c., 12 weeks post dose, individual animals",56.5 and 98.6 and 116
same,Plasma GS-CA1 level,"[1]; 300 mg/kg s.c., 14 weeks post dose, individual animals",66.9 and 71.3
same,Plasma GS-CA1 level,"[1]; 300 mg/kg s.c., 16 weeks post dose, individual animals",19.3 and 37.8 and 64.2
same,Plasma GS-CA1 level,"[1]; 300 mg/kg s.c., 18 weeks post dose, individual animals",10 and 26.3 and 22.2
same,concentration at 0.018 weeks,"[1]; male, Indian origin, rhesus monkey, in vivo, 100 mg/kg, Plasma GS-CA1 level, 100 mg/kg s.c., 0.018 weeks post dose, individual animals, unit inferred",202 nM
same,concentration at 0.047 weeks,"[1]; male, Indian origin, rhesus monkey, in vivo, 100 mg/kg, Plasma GS-CA1 level, 100 mg/kg s.c., 0.047 weeks post dose, individual animals, unit inferred",436 nM
same,concentration at 0.14 weeks,"[1]; male, Indian origin, rhesus monkey, in vivo, 100 mg/kg, Plasma GS-CA1 level, 100 mg/kg s.c., 0.14 weeks post dose, individual animals, unit inferred",1210 nM
same,concentration at 0.29 weeks,"[1]; male, Indian origin, rhesus monkey, in vivo, 100 mg/kg, Plasma GS-CA1 level, 100 mg/kg s.c., 0.29 weeks post dose, individual animals, unit inferred",1160 nM
same,concentration at 0.43 weeks,[1]; [3],910 nM
same,concentration at 0.57 weeks,[1]; [3],487 nM
same,concentration at 1 week,[1]; [3],353 nM
same,concentration at 2 weeks,"[1]; male, Indian origin, rhesus monkey, in vivo, 100 mg/kg, Plasma GS-CA1 level, 100 mg/kg s.c., 2 weeks post dose, individual animals, unit inferred",163 nM
same,concentration at 3 weeks,"[1]; male, Indian origin, rhesus monkey, in vivo, 100 mg/kg, Plasma GS-CA1 level, 100 mg/kg s.c., 3 weeks post dose, individual animals, unit inferred",114 nM
same,concentration at 4 weeks,[1]; [3],138 nM
same,concentration at 5 weeks,"[1]; male, Indian origin, rhesus monkey, in vivo, 100 mg/kg, Plasma GS-CA1 level, 100 mg/kg s.c., 5 weeks post dose, individual animals, unit inferred",93.4 nM
same,concentration at 6 weeks,"[1]; male, Indian origin, rhesus monkey, in vivo, 100 mg/kg, Plasma GS-CA1 level, 100 mg/kg s.c., 6 weeks post dose, individual animals, unit inferred",84.9 nM
same,concentration at 8 weeks,[1]; [3],36.4 nM
same,concentration at 10 weeks,"[1]; male, Indian origin, rhesus monkey, in vivo, 100 mg/kg, Plasma GS-CA1 level, 100 mg/kg s.c., 10 weeks post dose, individual animals, unit inferred",40.7 nM
same,concentration at 12 weeks,"[1]; male, Indian origin, rhesus monkey, in vivo, 100 mg/kg, Plasma GS-CA1 level, 100 mg/kg s.c., 12 weeks post dose, individual animals, unit inferred",18 nM
same,concentration at 0.006 weeks,"[1]; male, Indian origin, rhesus monkey, in vivo, 300 mg/kg, Plasma GS-CA1 level, 300 mg/kg s.c., 0.006 weeks post dose, individual animals, unit not given (Fig. 1b in nM)",68.8 nM
same,concentration at 0.43 weeks,[1]; [4],2000 nM
same,concentration at 0.57 weeks,[1]; [4],1920 nM
same,concentration at 1 week,[1]; [4],1310 nM
same,concentration at 4 weeks,[1]; [4],338 nM
same,concentration at 8 weeks,[1]; [4],198 nM
same,concentration at 10 weeks,"[1]; male, Indian origin, rhesus monkey, in vivo, 300 mg/kg, Plasma GS-CA1 level, 300 mg/kg s.c., 10 weeks post dose, individual animals, unit inferred",109 nM
same,concentration at 14 weeks,"[1]; male, Indian origin, rhesus monkey, in vivo, 300 mg/kg, Plasma GS-CA1 level, 300 mg/kg s.c., 14 weeks post dose, individual animals, unit inferred",43.8 nM
same,concentration at 7 day,"[1]; male, Indian origin, rhesus monkey, in vivo, plasma drug level, 100 and 300 mg/kg single s.c., by day 7",400 to 1100 nM
same,AUC(0-inf),[1]; [5],333 µM·h
same,F (based on AUCinf),[1]; [5],92%
same,Tmax,[1]; [5],36 h
same,half-life,[1]; [5],25 days
same,AUC(0-t),"[1]; male, Indian origin, rhesus monkey, in vivo, sc, 100 mg/kg, AUC0-24h",19.3 µM·h
same,AUC(0-t),"[1]; male, Indian origin, rhesus monkey, in vivo, sc, 100 mg/kg, AUC0-168h",147 µM·h
same,AUC(0-t),"[1]; male, Indian origin, rhesus monkey, in vivo, sc, 100 mg/kg, AUC0-336h",198 µM·h
same,AUC(0-t),"[1]; male, Indian origin, rhesus monkey, in vivo, sc, 100 mg/kg, AUC0-1008h",279 µM·h
same,AUC(0-t),"[1]; male, Indian origin, rhesus monkey, in vivo, sc, 100 mg/kg, AUC0-1344h",298 µM·h
same,AUC(0-t),"[1]; male, Indian origin, rhesus monkey, in vivo, sc, 100 mg/kg, AUC0-1680h",310 µM·h
same,AUC(0-inf),[1]; [6],1120 ± 126 µM·h
same,Cmax,[1]; [6],2710 ± 720 nM
same,F (based on AUCinf),[1]; [6],104 ± 12%
same,Tmax,[1]; [6],48 ± 24 h
same,half-life,[1]; [6],23.2 days
same,AUC(0-t),"[1]; male, Indian origin, rhesus monkey, in vivo, sc, 300 mg/kg, AUC0-24h",25.2 ± 10.2 µM·h
same,AUC(0-t),"[1]; male, Indian origin, rhesus monkey, in vivo, sc, 300 mg/kg, AUC0-336h",434 ± 114 µM·h
same,AUC(0-t),"[1]; male, Indian origin, rhesus monkey, in vivo, sc, 300 mg/kg, AUC0-1008h",819 ± 77 µM·h
same,AUC(0-t),"[1]; male, Indian origin, rhesus monkey, in vivo, sc, 300 mg/kg, AUC0-1344h",936 ± 91 µM·h
same,AUC(0-t),"[1]; male, Indian origin, rhesus monkey, in vivo, sc, 300 mg/kg, AUC0-1680h",1010 ± 109 µM·h
same,Kd,CA hexamer,0.38 nM
same,"Predicted Hepatic Clearance, rate, primary human hepatocytes",[2],0.02 L/h/kg
